The source of these data is patent US7326730B2, “Aminoadamantane derivatives as therapeutic agents” (Adamas Pharmaceuticals, Inc., priority 2000, dated 2008).

Entries after “also recorded” stand apart in the source; their conditions may differ.

For one series, the system named is C57B1/6 mice. Nature of the series: Murine cerebral ischemia model (intraluminal suture, 2 hr MCA occlusion, TTC staining). The settings on record: loading dose 100 mg/kg i.p., maintenance 40 mg/kg i.p. every 12 hr, first dose 2 hr after MCA occlusion; TTC staining at 48 hr; P<0.03 from control, P<0.05 from memantine; hydrochloride. It counts as in vivo. The method, then:
The intraluminal suture technique was used to produce a 2 hr occlusion of the middle cerebral artery (MCA), following the same protocol for focal cerebral ischemia/reperfusion as published previously (Chen, et al., Neuroscience (1998) 86: 1121). However, here C57B1/6 mice were used instead of rats. […] To produce a neuroprotective concentration of compound 7, the loading dose was 100 mg/kg i.p. and the maintenance dose was 40 mg/kg i.p. every 12 hr. In each case, drug or vehicle control was initially administered 2 hr after MCA occlusion. […] The animals were sacrificed and analyzed with TTC staining 48 hr after MCA occlusion (Chen, et al., Neuroscience (1998) 86: 1121).

Series [1] has as its system precontracted aortic vessel. Put plainly: Relaxation of norepinephrine-precontracted, endothelium-denuded thoracic aorta rings. Further details: species or system rabbits. The conditions noted are these: for effect on precontracted blood vessel: compared to solvent (EtOH) alone. As for the experimental part:
New Zealand white female rabbits weighing 3-4 kilograms were anesthetized with sodium pentobarbital, 13 milligram per kilogram. Descending thoracic aorta were isolated, the vessels were cleaned of adherent tissue and the endothelium was removed by a gentle rubbing with a cotton-tipped applicator inserted into the lumen. The vessels were cut into 5 millimeter rings and mounted on stirrups connected to transducers by which changes in isometric tension were recorded (model TO3C, Grass Instruments, Quincy, Mass.). Vessel rings were suspended in 20 mL of oxygenated Krebs buffer at 37° C. and sustained contractions were induced with 1 μM norepinephrine. The vessels were then relaxed in a dose-dependent fashion (10^−9 through 10^−5 M compound 8). In some experiments vessels were pretreated with methylene blue or hemoglobin to block relaxations.
Relaxations were attenuated by methylene blue (c) and hemoglobin (d) indicating an NO-related effect. (b) is a control with solvent.

In the next series the test system is cerebrocortical neurons. Nature of the series: In vitro model of mild NMDA-induced damage leading to apoptosis of cerebrocortical neurons. The class given is cell-based. The method, then:
Cerebrocortical cultures were exposed to 300 μM NMDA for 20 min with or without various concentrations of compound 7. The next day cultures were analyzed by neuronal apoptosis as described in Example 19.
Under these conditions (300 μM NMDA exposure for 20 min, followed by washout), neuronal apoptosis was monitored 24 hours later by propidium iodide uptake and morphology of fixed, permeabilized neurons, among other techniques (Bonfoco et al., Proc Natl Acad Sci USA (1995) 92: 7162). NMDA induced about 20% apoptosis of neurons, and that 25-100 μM compound 7 afforded protection from this damage (P<0.001, FIG. 5).

For series [2] the following is noted: loading dose 20 mg/kg i.p., maintenance dose 1 mg/kg/12 hours; previously shown (Chen et al. 1998); cited from earlier work.
Setting [3] is: rabbit aortic rings precontracted with 1 μM norepinephrine, 10^−9 through 10^−5 M tested.

With `CC12CC3(C)CC(N)(C1)CC(O[N+](=O)[O-])(C2)C3.Cl` [compound 7, 1-amino-3,5-dimethyl-7-nitrateadamantane hydrochloride], the “cerebral damage after stroke (neuroprotection)” value with C57B1/6 mice was “more neuroprotective than memantine; also recorded: effective in decreasing cerebral damage after stroke”. The “effect on precontracted blood vessel at 10 microM” value in series [1] (FIG. 8, 10 microM concentration) is given as “modest relaxation”. Further, in the series with cerebrocortical neurons (300 μM NMDA for 20 min, washout, apoptosis monitored 24 hours later by propidium iodide uptake and morphology, NMDA induced about 20% apoptosis, P<0.001), the “concentration affording protection from NMDA-induced neuronal apoptosis” value is 25 to 100 µM. In the series on cerebrocortical neurons (300 μM NMDA for 20 min with various concentrations of compound, dose-dependent, P<0.001, n=3 cultures), the “inhibition of NMDA induced apoptosis in cerebrocortical neurons” value is given as “largely prevented”.
As for `CC(=O)NC12CC3(C)CC(C)(C1)CC(O[N+](=O)[O-])(C3)C2` [compound 8, 1-acetamido-3,5-dimethyl-7-nitrateadamantane], in series [1] (setting [3]), the “concentration at which complete relaxation was achieved” value was 10^−6 M and the “concentration at which relaxations were seen” value is listed as 10^−8 M. In addition, in series [1] (vessels pretreated with hemoglobin), the “relaxations after pretreatment with hemoglobin” value is “attenuated”. Further, the “relaxations after pretreatment with methylene blue” value in series [1] (vessels pretreated with methylene blue) is given as “attenuated”.
On to `CC12CC3(C)CC(N)(C1)CC(O)(C2)C3.Cl` [compound 9, 1-amino-3,5-dimethyl-7-hydroxyadamantane hydrochloride], for which the “effect on precontracted blood vessel” value in series [1] (FIG. 8, hydrochloride) was “either no effect or slight contractions of blood vessels; also recorded: either no effect or slight blood vessel contractions”.
As to `CC12CC3(C)CC(O)(C1)CC(N(Cc1ccccc1)Cc1ccccc1)(C2)C3` [compound 10, 1,1-dibenzylamino-3,5-dimethyl-7-hydroxy-adamantane], the “effect on precontracted blood vessel” value in series [1] (FIG. 8) is “either no effect or slight contractions of blood vessels; also recorded: either no effect or slight blood vessel contractions”.
Take `CC12CC3CC(C)(C1)CC(N)(C3)C2` [memantine]: in series [2], the “parenchymal levels in the brain” value was 1 to 10 µM.
